In US10662218B2, “Analogs of celastrol” (ERX Pharmaceuticals, Inc., priority 2015, dated 2020):
≈ marks a conversion by molar mass, not a printed value. Where “and” joins values, the source holds several entries; their conditions need not be identical. Equal entries are not always repeated. Where two headings read alike, the source gives them in different places.

Experiments:
[1] = Compound solubility in PBS (pH 7.4), LC-MS/MS; settings: PBS (pH 7.4), pH 7.4, aqueous buffer, kinetic from dmso stock
Method: • Test concentration: 100 μM (1% of DMSO) • Test systems: PBS (pH 7.4) • Incubation condition: shaken (1000 rpm) for 1 h at room temperature • Sample size: Duplicates (n=2) • Bioanalytical method: LC-MS/MS

[2] = system: C57BL/6 Diet Induced Obese (DIO) mice; settings: I.P. administration
Method: The following test compounds were studied to determine any anti-obesity effect when administered to rodents. First, test compounds were formulated in 50, 100, 200, 400, 500, 1000 and 2000 μg/kg doses and administered once daily in a dose volume of 2 mL/kg i.p. for multiple days. Test compounds were compared to administration of vehicle to mice. The experiment consisted of two phases: a pre-dosing phase and a dosing phase. Weight of the animals in each testing group was measured daily. Fluid samples were taken as well.
Descriptive statistics (n, mean, standard error of the mean, standard deviation) were completed. Additionally, one way analysis of variance followed by Dunnett's post-hoc test was performed on body weight (cumulative body weight change), glucose (glucose percent change), and food consumption (cumulative food consumption). Area under the curve (for body weight, cumulative body weight change, daily body weight change, and food consumption) was computed for treatment groups. An appropriate comparison test, such as one-way analysis of variance and Dunnett's, was performed on the group means for the area under the curve computations.

[3] = system: C57BL/6 Diet Induced Obese (DIO) mice; assay: Oral (P.O.) administration study in DIO mice: in vivo activity, body weights; parameters: species or system mouse; settings: 2 mg/kg; for Individual Body Weight: individual male animals; for Body weight, Mean / change in vivo at 2 mg/kg: male; for change in vivo at 2 mg/kg: Mus musculus, po, read-out: Body weight, %-Diff
Outline: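 Male C57BL/6 DIO mice (21-22 weeks, 29.8-40.1 g) were gavage-acclimated with vehicle, then dosed orally once daily for 10 days at 2 mL/kg. Body weight was recorded daily before dosing. Cumulative change and AUC were analysed by one-way ANOVA with Dunnett's test.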

[4] = system: C57BL/6 Diet Induced Obese (DIO) mice; assay: Oral (P.O.) administration study in DIO mice: animal fate (mortality) and clinical observations; settings: mouse, in vivo, 2 mg/kg
Method: Male C57BL/6 DIO mice were assigned to 12 groups, and doses of 2 mg/kg Celastrol (ERX1000-4), ERX1006, ERX1007, ERX1037, ERX1060, ERX1077, ERX1107, ERX1149, ERX1168, ERX1177, and Pristimerin were administered to Groups 2 through 12, respectively. Animals were dosed via oral gavage once daily for 10 days at a volume of 2 mL/kg. The vehicle control article was 1% methyl cellulose (400 cps) in citric acid and phosphate buffer.
Parameters assessed included mortality, clinical observations, body weights and food consumption and blood glucose evaluations.
All animals were anesthetized via carbon dioxide, sacrificed, and discarded without further evaluation on Day 11.

[5] = Solubility (μM) Mean, Table 6-B, test concentration 100 μM (1% of DMSO), shaken (1000 rpm) 1 h at room temperature, n = 2
[6] = 24 h, Day 1, DSNG phase, difference of group mean
[7] = 48 h, Day 2, DSNG phase, difference of group mean
[8] = 72 h, Day 3, DSNG phase, difference of group mean
[9] = 96 h, Day 4, DSNG phase, difference of group mean
[10] = 120 h, Day 5, DSNG phase, difference of group mean
[11] = 144 h, Day 6, DSNG phase, difference of group mean
[12] = 168 h, DIO mice, phase DSNG, Day 7, difference of group mean from vehicle group 1
[13] = 192 h, DIO mice, phase DSNG, Day 8, difference of group mean from vehicle group 1
[14] = 216 h, DIO mice, phase DSNG, Day 9, difference of group mean from vehicle group 1
[15] = 240 h, DIO mice, phase DSNG, Day 10, difference of group mean from vehicle group 1
[16] = 264 h, DIO mice, phase DSNG, Day 11, difference of group mean from vehicle group 1

Row | solubility at 1 h [1, 5] [µM] | solubility at 1 h ([1]; Solubility (μM), Table 6-D) [µM] | Compound | activity ([2]; dose 100 μg/kg) | activity ([2]; dose 400 μg/kg) | Body weight, Mean ([3]; DIO mice, phase DSNG, Day 7) [g] | Body weight, Mean ([3]; DIO mice, phase DSNG, Day 8) [g] | Body weight, Mean ([3]; DIO mice, phase DSNG, Day 9) [g] | Body weight, Mean ([3]; DIO mice, phase DSNG, Day 10) [g] | Body weight, Mean ([3]; DIO mice, phase DSNG, Day 11) [g] | Body weight, Mean ([3]; Day 1, DSNG phase, N=5) [g] | Body weight, Mean ([3]; Day 2, DSNG phase, N=5) [g] | Body weight, Mean ([3]; Day 3, DSNG phase, N=5) [g] | Body weight, Mean ([3]; Day 4, DSNG phase, N=5) [g] | Body weight, Mean ([3]; Day 5, DSNG phase, N=5) [g] | Body weight, Mean ([3]; Day 6, DSNG phase, N=5) [g] | change in vivo at 2 mg/kg [3, 6] [%] | change in vivo at 2 mg/kg [3, 7] [%] | change in vivo at 2 mg/kg [3, 8] [%] | change in vivo at 2 mg/kg [3, 9] [%] | change in vivo at 2 mg/kg [3, 10] [%] | other results
1 | 8.56 (≈ 3.97 µg/mL) | 8.56 (≈ 3.97 µg/mL) | COC1=C(C)C2=CC=C3[C@@](C)(CC[C@@]4(C)[C@@H]5C[C@](C)(C(N)=O)CC[C@]5(C)CC[C@]34C)C2=CC1=O [ERX1031] | − | ++ |  |  |  |  |  |  |  |  |  |  |  |  |  |  |  |  | 
2 | 1.13 (≈ 0.568 µg/mL) | 1.13 (≈ 0.568 µg/mL) | CCNC(=O)OC1=C(C)C2=CC=C3[C@@](C)(CC[C@@]4(C)[C@@H]5C[C@](C)(C#N)CC[C@]5(C)CC[C@]34C)C2=CC1=O [ERX1047] | − | ++ |  |  |  |  |  |  |  |  |  |  |  |  |  |  |  |  | 

Continued, compound first:

Row | Compound | solubility at 1 h [1, 5] [µM] | solubility at 1 h ([1]; Solubility (μM), Table 6-D) [µM] | activity ([2]; dose 100 μg/kg) | activity ([2]; dose 400 μg/kg) | Body weight, Mean ([3]; DIO mice, phase DSNG, Day 7) [g] | Body weight, Mean ([3]; DIO mice, phase DSNG, Day 8) [g] | Body weight, Mean ([3]; DIO mice, phase DSNG, Day 9) [g] | Body weight, Mean ([3]; DIO mice, phase DSNG, Day 10) [g] | Body weight, Mean ([3]; DIO mice, phase DSNG, Day 11) [g] | Body weight, Mean ([3]; Day 1, DSNG phase, N=5) [g] | Body weight, Mean ([3]; Day 2, DSNG phase, N=5) [g] | Body weight, Mean ([3]; Day 3, DSNG phase, N=5) [g] | Body weight, Mean ([3]; Day 4, DSNG phase, N=5) [g] | Body weight, Mean ([3]; Day 5, DSNG phase, N=5) [g] | Body weight, Mean ([3]; Day 6, DSNG phase, N=5) [g] | change in vivo at 2 mg/kg [3, 6] [%] | change in vivo at 2 mg/kg [3, 7] [%] | change in vivo at 2 mg/kg [3, 8] [%] | change in vivo at 2 mg/kg [3, 9] [%] | change in vivo at 2 mg/kg [3, 10] [%] | other results
3 | CC1=C(O)C(=O)C=C2C1=CC=C1[C@@]2(C)CC[C@@]2(C)[C@@H]3C[C@](C)(C#N)CC[C@]3(C)CC[C@]12C [ERX1015] | 0.79 (≈ 0.341 µg/mL) | 0.791 (≈ 0.342 µg/mL) | ++ |  |  |  |  |  |  |  |  |  |  |  |  |  |  |  |  |  | 
4 | CCOC1=C(C)C2=CC=C3[C@@](C)(CC[C@@]4(C)[C@@H]5C[C@](C)(C(N)=O)CC[C@]5(C)CC[C@]34C)C2=CC1=O [ERX1107] | 11.4 (≈ 5.45 µg/mL) | 11.4 (≈ 5.45 µg/mL) |  |  | 32.4 | 32.3 | 32.2 | 32.4 | 32.7 | 34.2 | 34.3 | 33.4 | 33.2 | 33.1 | 32.7 | 0 | -1 | -1 | -1 | -2 | Individual Body Weight ([3]; Phase Day DSNG 1): 33.6 g and 35.8 g and 36.3 g and 31.2 g and 34.1 g; Individual Body Weight ([3]; Phase Day DSNG 2): 33.5 g and 36.5 g (2×) and 31.0 g and 33.9 g; Individual Body Weight ([3]; Phase Day PRED 11 (pre-dose baseline)): 34.1 g (2×) and 36.6 g and 37.7 g and 36.2 g; Individual Body Weight ([3]; Phase Day PRED 12 (pre-dose baseline)): 35.1 g and 37.5 g and 37.9 g and 33.2 g and 34.6 g; Individual Body Weight ([3]; Phase Day PRED 13 (pre-dose baseline)): 34.9 g and 38.0 g and 37.6 g and 31.9 g and 33.8 g; Individual Body Weight ([3]; Phase Day PRED 14 (pre-dose baseline)): 35.1 g and 37.5 g and 37.7 g and 32.5 g and 34.6 g; change in vivo at 2 mg/kg [3, 11]: -2%; change in vivo at 2 mg/kg [3, 12]: -3%; change in vivo at 2 mg/kg [3, 13]: -4%; change in vivo at 2 mg/kg [3, 14]: -3%; change in vivo at 2 mg/kg [3, 15]: -3%; change in vivo at 2 mg/kg [3, 16]: -4%; Individual Animal Fate: Fate Status [4]: Scheduled Sacrifice
5 | CC1=C(O)C(=O)C=C2C1=CC=C1[C@@]2(C)CC[C@@]2(C)[C@@H]3C[C@](C)(N(C)C)CC[C@]3(C)CC[C@]12C [ERX1177] | 49.5 (≈ 22.3 µg/mL) | 49.5 (≈ 22.3 µg/mL) |  |  | 33.4 | 33.1 | 33.0 | 33.1 | 33.0 | 34.9 | 34.4 | 34.2 | 33.7 | 33.8 | 33.5 | 2 | 0 | 1 | 1 | 0 | Individual Body Weight ([3]; Phase Day DSNG 3): 31.8 g (2×) and 34.6 g (2×) and 38.2 g; Individual Body Weight ([3]; Phase Day DSNG 4): 31.2 g and 30.8 g and 34.8 g and 37.7 g and 34.2 g; Individual Body Weight ([3]; Phase Day DSNG 5): 31.3 g and 30.9 g and 34.2 g and 38.0 g and 34.4 g; Individual Body Weight ([3]; Phase Day DSNG 6): 31.4 g and 30.1 g and 33.7 g and 38.1 g and 34.4 g; Individual Body Weight ([3]; Phase Day DSNG 7): 31.4 g and 29.9 g and 33.7 g and 38.0 g and 34.1 g; Individual Body Weight ([3]; Phase Day DSNG 8): 31.0 g and 29.8 g and 33.4 g and 37.8 g and 33.7 g; change in vivo at 2 mg/kg [3, 11]: 0%; change in vivo at 2 mg/kg [3, 12]: 0%; change in vivo at 2 mg/kg [3, 13]: -2%; change in vivo at 2 mg/kg [3, 14]: -1%; change in vivo at 2 mg/kg [3, 15]: -1%; change in vivo at 2 mg/kg [3, 16]: -3%; Individual Body Weight, DSNG 1 ([3]; individual male DIO mouse, dosing phase day 1): 32.0 g and 32.1 g and 35.5 g and 40.1 g and 35.0 g; Individual Body Weight, DSNG 2 ([3]; individual male DIO mouse, dosing phase day 2): 32.2 g and 31.9 g and 34.5 g and 38.4 g and 34.9 g; Individual Body Weight, PRED 11 ([3]; individual male DIO mouse, group dosed 2 mg/kg, pre-dose phase day 11 (baseline)): 33.8 g and 33.3 g and 37.1 g and 41.9 g and 35.5 g; Individual Body Weight, PRED 12 ([3]; individual male DIO mouse, group dosed 2 mg/kg, pre-dose phase day 12 (baseline)): 32.5 g and 33.7 g and 36.7 g and 41.6 g and 36.2 g; Individual Body Weight, PRED 13 ([3]; individual male DIO mouse, group dosed 2 mg/kg, pre-dose phase day 13 (baseline)): 31.8 g and 32.6 g and 35.6 g and 42.2 g and 36.1 g; Individual Body Weight, PRED 14 ([3]; individual male DIO mouse, group dosed 2 mg/kg, pre-dose phase day 14 (baseline)): 31.7 g and 33.1 g and 36.4 g and 41.7 g and 36.2 g; Individual Animal Fate: Fate Status [4]: Scheduled Sacrifice
